Here are results for 22 compounds from US11299496B2, “Ligands for alpha-7 nicotinic acetylcholine receptors and methods of treating neurological and inflammatory conditions” (Northeastern University, priority 2014, dated 2022).

The assay deals with T1, human alpha-7 nAChR (Homo sapiens, UniProt P36544).
T1 construct: expressed in transfected cells; host or cells: Xenopus laevis oocytes (cRNA injection)
As to the kind of experiment: Two-electrode voltage clamp of alpha-7 nAChR expressed in Xenopus oocytes (net charge). As to conditions: area under the curve of current vs. time; for Charge Alone: compound alone acting as an allosteric agonist; for Charge +C: compound together with choline or ACh, includes PAM and ago-PAM activity. It counts as cell-based. On the procedure: The human alpha-7 nAChR receptor clone was obtained from Dr. Jon Lindstrom {University of Pennsylvania, Philadelphia, Pa.), aid the RIC-3 clone from Dr. Millet Treinin (Hebrew University, Jerusalem, Israel) for the purpose of co-injection with a7 to improve the level and speed of receptor expression (Halevi et al., 2003). After linearization and purification of cloned cDNA's, RNA, transcripts were prepared rising the appropriate mMessage mMachine kit tiom Ambion (Austin, Tex.).
Expression in X, laeivis Oocytes
Oocytes were obtained from mature (>9 cm) female Xenopus laeivis African frogs (Nasco, Ft. Atkinson, Wis.). Frogs were anesthetized in 0.7 g/L solution of ethyl 3-aminobenzoate methanesulfonate buffered with sodium bicarbonate, and oocytes were surgically removed through an abdominal incision. Harvested oocytes were treated with 1.25 mg/ml collagenase (Worthington Biochemicals, Freehold, N.J.) in calcium-free Barth's solution (88 mM NaCl, 1 mM KCl, 2.38 mM NaHCO3, 0.82 mM MgSO4, 15 mM HEPES, 12 mg/L tetracycline, pH 7.6) for 3-4 hours to remove the follicular layer. Stage-5 oocytes were isolated and injected with 50 nL (5-20 ng) of human alpha-7 and RIC-3 cRNA. Suitable levels of receptor expression were typically achieved 2-6 days after injection of cRNA. For experiments involving the PAM 4BP-TQS/GAT-107, where standard levels of expression result in ion currents too large to be recorded in voltage clamp, experiments were typically conducted 1-3 days after RNA injection.
Two-electrode voltage clamp experiments were conducted using OpusXpress6000A (Molecular Devices, Sunnyvale, Calif.), an integrated system that provides automated impalement and voltage clamp of up to eight oocytes in parallel. Both the current and voltage electrodes were filled with 3 M KCl, and oocytes were clamped at a holding potential of −60 mV. Data were collected at 50 Hz and filtered at 20 Hz. The oocytes were bath-perfused with Ringer's solution (115 mM NaCl, 10 mM HEPES, 2.5 mM KCl, 1.8 mM CaCl2, pH 7.3), and agonist solutions were delivered from a 96-well drug plate using disposable tips. Flow rates were set at 2 mL/min, with each drug or control solution delivered in 12 s durations, followed˜by 181 s washouts with Ringer's unless noted otherwise.
Experimental Protocols and Data Analysis
Responses of human alpha-7 receptors to agonists were measured as both peek current and net charge measured over a 120 s period beginning with the compound application (Papke and Papke, 2002). […] In experiments involving positive allosteric modulators (PAMs), the fast desensitization of alpha-7 was eliminated, allowing peak currents to be used as a valid measurement of the receptor-mediated responses (Wang et al., 2012; Williams et al., 2011).
Oocytes received two control ACh applications prior to receiving any drug in order to establish a steady reference response, and they received one or more control ACh applications at the end of all experiments. For experiments involving drug incubation through bath applications, all responses were normalized to the average of two ACh control responses taken immediately prior to the switch of bath solution, for each cell individually. These normalization procedures had the effect of compensating for differing levels of receptor expression among the multiple oocytes used in each experiment. Each experiment was conducted on at least four oocytes, with mean values and standard errors (S.E.M.) calculated from their normalized responses. […]

T1 sequence (P36544 23-502): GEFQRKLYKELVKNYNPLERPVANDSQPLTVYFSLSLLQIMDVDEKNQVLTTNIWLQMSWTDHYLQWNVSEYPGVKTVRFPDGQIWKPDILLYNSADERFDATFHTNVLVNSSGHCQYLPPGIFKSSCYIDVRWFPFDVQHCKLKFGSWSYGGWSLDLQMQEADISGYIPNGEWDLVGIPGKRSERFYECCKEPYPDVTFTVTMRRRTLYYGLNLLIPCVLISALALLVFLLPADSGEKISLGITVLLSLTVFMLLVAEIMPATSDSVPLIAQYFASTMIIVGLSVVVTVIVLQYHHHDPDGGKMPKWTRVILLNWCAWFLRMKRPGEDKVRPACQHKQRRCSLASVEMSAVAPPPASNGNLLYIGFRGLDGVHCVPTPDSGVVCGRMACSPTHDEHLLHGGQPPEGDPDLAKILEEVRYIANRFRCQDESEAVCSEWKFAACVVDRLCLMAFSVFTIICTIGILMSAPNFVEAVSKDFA

As for `NS(=O)(=O)c1ccc2c(c1)[C@H]1C=CC[C@H]1[C@@H](c1ccncc1)N2` (stereo in doubt) [Compound 2, 4-(pyridin-4-yl)-3a,4,5,9b-tetrahydro-3H-cyclopenta[c]quinoline-8-sulfonamide], the “Charge Alone” value is given as “Inactive” and the “Charge +C” value is given as “Inactive”.

Regarding `NS(=O)(=O)c1ccc2c(c1)[C@H]1OCC[C@H]1[C@@H](c1ccc(Br)cc1)N2` (stereo in doubt) [Compound 3, 4-(4-bromophenyl)-2,3,3a,4,5,9b-hexahydrofuro[3,2-c]quinoline-8-sulfonamide], the “Charge Alone” value was “Inactive” and the “Charge +C” value is listed as “Inactive”. With `NS(=O)(=O)c1ccc([C@H]2Nc3ccc(Br)cc3[C@H]3C=CC[C@H]32)cc1` (stereo in doubt) [Compound 4, 4-(8-bromo-3a,4,5,9b-tetrahydro-3H-cyclopenta[c]quinolin-4-yl)benzenesulfonamide], the “Charge Alone” value was determined as 0 and the “Charge +C” value is 8.4. The matching figures for `NS(=O)(=O)c1ccc2c(c1)[C@H]1CCC[C@H]1[C@@H](c1ccc(Br)cc1)N2` (stereo in doubt) [Compound 5, 4-(4-bromophenyl)-2,3,3a,4,5,9b-hexahydro-1H-cyclopenta[c]quinoline-8-sulfonamide]: 23 and 93.

With `N#Cc1ccc([C@@H]2Nc3ccc(S(N)(=O)=O)cc3[C@H]3C=CC[C@H]32)cc1` (stereo in doubt) [Compound 6, 4-(4-cyanophenyl)-3a,4,5,9b-tetrahydro-3H-cyclopenta[c]quinoline-8-sulfonamide], the “Charge Alone” value was “Inactive” and the “Charge +C” value is “Inactive”. On to `NS(=O)(=O)c1ccc2c(c1)[C@H]1C=CC[C@H]1[C@@H](c1ccc([N+](=O)[O-])cc1)N2` (stereo in doubt) [Compound 8, 4-(4-nitrophenyl)-3a,4,5,9b-tetrahydro-3H-cyclopenta[c]quinoline-8-sulfonamide], for which the “Charge Alone” value is 43 and the “Charge +C” value was determined as 318. The matching figures for `NS(=O)(=O)c1ccc2c(c1)N[C@H](c1ccc(Br)cc1)[C@@H]1CC=C[C@H]21` (stereo in doubt) [Compound 10, 4-(4-bromophenyl)-3a,4,5,9b-tetrahydro-3H-cyclopenta[c]quinoline-7-sulfonamide]: “Inactive” and “Inactive”. The matching figures for `NS(=O)(=O)c1cccc2c1N[C@H](c1ccc(Br)cc1)[C@@H]1CC=C[C@H]21` (stereo in doubt) [Compound 11, 4-(4-bromophenyl)-3a,4,5,9b-tetrahydro-3H-cyclopenta[c]quinoline-6-sulfonamide]: “Inactive” and “Inactive”. Consider `NS(=O)(=O)c1ccc2c(c1)[C@H]1C=CC[C@H]1[C@@H](c1ccc(-c3ccccc3)cc1)N2` (stereo in doubt) [Compound 12, 4-([1,1′-biphenyl]-4-yl)-3a,4,5,9b-tetrahydro-3H-cyclopenta[c]quinoline-8-sulfonamide], for which the “Charge +C” value is given as 76. On the same count and under the same terms, the figure for `NS(=O)(=O)c1ccc2c(c1)[C@H]1C=CC[C@H]1[C@@H](Cc1ccccc1)N2` (stereo in doubt) [Compound 13, 4-benzyl-3a,4,5,9b-tetrahydro-3H-cyclopenta[c]quinoline-8-sulfonamide] is 76.

In the case of `NS(=O)(=O)c1ccc2c(c1)[C@H]1C=CC[C@H]1[C@@H](c1ccoc1)N2` (stereo in doubt) [Compound 14, 4-(furan-3-yl)-3a,4,5,9b-tetrahydro-3H-cyclopenta[c]quinoline-8-sulfonamide], the “Charge Alone” value was “Inactive” and the “Charge +C” value was “Inactive”. On to `NS(=O)(=O)c1ccc2c(c1)[C@H]1C=CC[C@H]1[C@@H](c1ccsc1)N2` (stereo in doubt) [Compound 15, 4-(thiophen-3-yl)-3a,4,5,9b-tetrahydro-3H-cyclopenta[c]quinoline-8-sulfonamide], for which the “Charge +C” value is recorded as 500. On to `NS(=O)(=O)c1ccc2c(c1)[C@H]1C=CC[C@H]1[C@@H](c1cccs1)N2` (stereo in doubt) [Compound 17, 4-(thiophen-2-yl)-3a,4,5,9b-tetrahydro-3H-cyclopenta[c]quinoline-8-sulfonamide], for which the “Charge Alone” value is given as 0.031 and the “Charge +C” value is 21.096.

In the case of `Nc1ccc([C@H]2Nc3ccc(S(N)(=O)=O)cc3[C@H]3C=CC[C@H]32)cc1` (stereo in doubt) [Compound 18, 4-(4-aminophenyl)-3a,4,5,9b-tetrahydro-3H-cyclopenta[c]quinoline-8-sulfonamide], the “Charge +C” value turned out to be 250.

For the compound `NS(=O)(=O)c1ccc2c(c1)[C@H]1C=CC[C@H]1[C@@H](C1CCCCC1)N2` (stereo in doubt) [Compound 19, 4-cyclohexyl-3a,4,5,9b-tetrahydro-3H-cyclopenta[c]quinoline-8-sulfonamide], the “Charge Alone” value is “Inactive” and the “Charge +C” value is “Inactive”.

On to `NS(=O)(=O)c1ccc2c(c1)[C@H]1C=CC[C@H]1[C@@H](c1ccccc1[N+](=O)[O-])N2` (stereo in doubt) [Compound 20, 4-(2-nitrophenyl)-3a,4,5,9b-tetrahydro-3H-cyclopenta[c]quinoline-8-sulfonamide], for which the “Charge +C” value was found to be 52. In the case of `CN(C)S(=O)(=O)c1ccc2c(c1)[C@H]1C=CC[C@H]1[C@@H](c1ccc(Br)cc1)N2` (stereo in doubt) [Compound 21, 4-(4-bromophenyl)-N,N-dimethyl-3a,4,5,9b-tetrahydro-3H-cyclopenta[c]quinoline-8-sulfonamide], the “Charge Alone” value is “Inactive” and the “Charge +C” value is “Inactive”. On to `CNS(=O)(=O)c1ccc2c(c1)[C@H]1C=CC[C@H]1[C@@H](c1ccc(Br)cc1)N2` (stereo in doubt) [Compound 22, 4-(4-bromophenyl)-N-methyl-3a,4,5,9b-tetrahydro-3H-cyclopenta[c]quinoline-8-sulfonamide], for which the “Charge Alone” value is reported as “Inactive” and the “Charge +C” value is on record as “Inactive”. Consider `O=S(=O)(c1ccc2c(c1)[C@H]1C=CC[C@H]1[C@@H](c1ccc(Br)cc1)N2)N1CCOCC1` (stereo in doubt) [Compound 23, 4-((4-(4-bromophenyl)-3a,4,5,9b-tetrahydro-3H-cyclopenta[c]quinolin-8-yl)sulfonyl)morpholine], for which the “Charge Alone” value was “Inactive” and the “Charge +C” value is recorded as “Inactive”. Take `[N-]=[N+]=Nc1ccc([C@H]2Nc3ccc(S(N)(=O)=O)cc3[C@H]3C=CC[C@H]32)cc1` (stereo in doubt) [Compound 25, 4-(4-azidophenyl)-3a,4,5,9b-tetrahydro-3H-cyclopenta[c]quinoline-8-sulfonamide]: the “Charge Alone” value was found to be 61.

With `NS(=O)(=O)c1ccc2c(c1)[C@H]1C=CC[C@H]1[C@@H](c1ccc(N=C=S)cc1)N2` (stereo in doubt) [Compound 26, 4-(4-isothiocyanatophenyl)-3a,4,5,9b-tetrahydro-3H-cyclopenta[c]quinoline-8-sulfonamide], the “Charge Alone” value stood at 0 and the “Charge +C” value came out at 22. Turning to `NS(=O)(=O)c1ccc([C@H]2Nc3ccc(S(N)(=O)=O)cc3[C@H]3C=CC[C@H]32)cc1` (stereo in doubt) [Compound 28, 4-(4-sulfamoylphenyl)-3a,4,5,9b-tetrahydro-3H-cyclopenta[c]quinoline-8-sulfonamide], the “Charge +C” value amounted to 128.
